The values that follow come from PubChem BioAssay AID493145 (Sanford-Burnham Center for Chemical Genomics, 2011).

The EC50 is the concentration needed to bring the measured effect to its halfway point. A word on the pEC50: it is the EC50 on a negative log10 scale, so that one unit is a factor of ten.

pEC50: −log10 of the molar value. Values joined by “and” are separate entries in the source; they are usually repeats but may differ in a detail not shown here. Equal values may be shown once. Active and inactive are the calls of the source. The rule behind the calls is not given here.

In this assay the target is Intestinal-type alkaline phosphatase (Homo sapiens) (UniProt P09923). Kind of assay: activation of human intestinal phosphatase enzyme – biochemical, human enzyme for mouse series, mouse IAP activator project, SAR follow-up (AID 493145). As to conditions: purified human intestinal alkaline phosphatase, enzymatic activity.
Chain of Intestinal-type alkaline phosphatase (Homo sapiens) (P09923 whole entry, looked up): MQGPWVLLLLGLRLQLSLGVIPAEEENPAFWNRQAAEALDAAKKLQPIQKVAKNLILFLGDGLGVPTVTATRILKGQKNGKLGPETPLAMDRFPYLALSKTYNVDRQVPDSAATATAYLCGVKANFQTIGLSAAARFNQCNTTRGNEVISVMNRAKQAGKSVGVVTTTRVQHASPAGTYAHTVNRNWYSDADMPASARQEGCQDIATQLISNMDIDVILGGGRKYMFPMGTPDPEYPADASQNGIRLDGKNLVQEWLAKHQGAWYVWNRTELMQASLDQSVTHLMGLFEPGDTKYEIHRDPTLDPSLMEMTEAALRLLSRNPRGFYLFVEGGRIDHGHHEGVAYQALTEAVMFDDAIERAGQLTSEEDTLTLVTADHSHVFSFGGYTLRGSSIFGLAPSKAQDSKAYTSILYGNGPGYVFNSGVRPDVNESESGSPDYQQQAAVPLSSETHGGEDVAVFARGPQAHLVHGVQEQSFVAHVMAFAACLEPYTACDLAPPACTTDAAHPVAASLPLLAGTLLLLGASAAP
As for `N#Cc1c(SCC(=O)Nc2ccc(C(F)(F)F)cc2)sc2c(O)cc(=O)[nH]c12`, the EC50 was > 100 µM (inactive).

With `Cc1ccc(C)c(NC(=O)CCNS(=O)(=O)c2ccc3[nH]c(=O)oc3c2)c1`, the EC50 is > 100 µM (inactive).

As for `CC(C(=O)NCCc1ccc(O)c(O)c1)N1C(=O)/C(=C\c2ccco2)SC1=S` (stereo not drawn), the EC50 is > 100 µM (inactive).

For `COc1cc(Cl)c(C)cc1NC(=O)CSc1sc2c(O)cc(=O)[nH]c2c1C#N`, the EC50 was > 100 µM (inactive).

In the case of `COc1cc(C(=O)NNC(=S)NC(=O)c2ccccc2C)cc(OC)c1OC`, the negative logarithm of the EC50 (pEC50) was 4.67.

For `O=C(CN1C(=O)/C(=C/c2ccco2)SC1=S)Nc1ccc(C(=O)O)c(O)c1`, the EC50 is > 100 µM (inactive).

`O=C(CN1C(=O)/C(=C/c2ccco2)SC1=S)NCCc1ccc(O)cc1`: the EC50 is > 100 µM (inactive).

`COc1ccc(N2CCN(C(=O)CN3C(=O)/C(=C\c4ccco4)SC3=S)CC2)cc1`: the EC50 was > 100 µM (inactive).

For the compound `Cc1ccc(NC(=O)CSc2sc3c(O)cc(=O)[nH]c3c2C#N)c(F)c1`, the EC50 was > 100 µM (inactive).

As to `CC(C(=O)Nc1cccc(C(=O)O)c1)N1C(=O)/C(=C\c2ccco2)SC1=S` (stereo not drawn), the EC50 was > 100 µM (inactive).

As for `Cc1ccc(/C=C2\SC(=S)N(C3CCS(=O)(=O)C3)C2=O)o1` (stereo not drawn), the EC50 is > 100 µM (inactive).

Regarding `CCOC(=O)N1CCC(NC(=O)CSc2sc3c(O)cc(=O)[nH]c3c2C#N)CC1`, the EC50 was > 100 µM (inactive).

`COc1cccc(NC(=O)CN(C)S(=O)(=O)c2ccc3[nH]c(=O)oc3c2)c1`: the EC50 was > 100 µM (inactive).

Consider `Cc1cc(NC(=O)CSc2sc3c(O)cc(=O)[nH]c3c2C#N)ccc1Br`, for which the EC50 was > 100 µM (inactive).

In the case of `O=C(N/N=C/C1CC2CCC1C2)c1cc(O)c(O)c(O)c1` (stereo not drawn), the EC50 was > 100 µM (inactive).

For `O=C(CCCN1C(=O)/C(=C\c2ccco2)SC1=S)Nc1ccc(O)cc1C(=O)O`, the EC50 is > 100 µM (inactive).

Turning to `CC(C)c1ccc(NC(=O)CCNS(=O)(=O)c2ccc3[nH]c(=O)oc3c2)cc1`, the EC50 was > 100 µM (inactive).

With `CCOC(=O)NC(=O)CSc1sc2c(O)cc(=O)[nH]c2c1C#N`, the EC50 was > 100 µM (inactive).

In the case of `N#Cc1c(SCC(=O)Nc2cccc(F)c2)sc2c(O)cc(=O)[nH]c12`, the EC50 was > 100 µM (inactive).

As for `COc1cccc(/C=N/NC(=O)c2cc(O)c(O)c(O)c2)c1`, the EC50 was > 100 µM (inactive).

Regarding `O=S(=O)(Nc1ncccn1)c1ccc(NC(=S)NCCC(c2ccccc2)c2ccccc2)cc1`, the EC50 was > 100 µM (inactive).

`N#Cc1cccc(NC(=O)CSc2sc3c(O)cc(=O)[nH]c3c2C#N)c1`: the EC50 is > 100 µM (inactive).

For the compound `CCOc1ccccc1NC(=O)CCNS(=O)(=O)c1ccc2[nH]c(=O)oc2c1`, the EC50 is > 100 µM (inactive).

Regarding `Cc1ccc(NC(=O)CCNS(=O)(=O)c2ccc3[nH]c(=O)oc3c2)cc1`, the EC50 is > 100 µM (inactive).

`CCSc1nnc(NC(=O)CSc2sc3c(O)cc(=O)[nH]c3c2C#N)s1`: the EC50 is > 100 µM (inactive).

As to `N#Cc1c(SCC(=O)Nc2nccs2)sc2c(O)cc(=O)[nH]c12`, the EC50 was > 100 µM (inactive).

As to `O=C(NNC(=O)c1cc(O)c(O)c(O)c1)NC1CCCCC1`, the EC50 was > 100 µM (inactive).

As for `N#Cc1c(SCC(=O)Nc2nncs2)sc2c(O)cc(=O)[nH]c12`, the EC50 is > 100 µM (inactive).

Regarding `O=C(CN1C(=O)/C(=C\c2ccco2)SC1=S)Nc1ccc(C(=O)O)cc1`, the EC50 was > 100 µM (inactive).

Consider `Cc1ccc(/C=N/NC(=O)c2cc(O)c(O)c(O)c2)cc1`, for which the EC50 is > 100 µM (inactive).

On to `O=C(CN1C(=O)/C(=C\c2ccco2)SC1=S)Nc1cccc(C(=O)O)c1`, for which the EC50 was > 100 µM (inactive).

As to `CC(C(=O)N(C)C1CCS(=O)(=O)C1)N1C(=O)/C(=C/c2ccco2)SC1=S` (stereo not drawn), the EC50 is > 100 µM (inactive).

In the case of `O=C1/C(=C/c2ccco2)SC(=S)N1C1CCS(=O)(=O)C1` (stereo not drawn), the negative-log EC50 (pEC50) is 4.37.

As for `O=C(CCNS(=O)(=O)c1ccc2[nH]c(=O)oc2c1)Nc1cccc(-c2ccno2)c1`, the EC50 is > 100 µM (inactive).

`N#Cc1cccc(NC(=O)CCNS(=O)(=O)c2ccc3[nH]c(=O)oc3c2)c1`: the EC50 was > 100 µM (inactive).

In the case of `O=C(CN1C(=O)/C(=C/c2ccco2)SC1=S)Nc1ccc(C(=O)O)cc1`, the EC50 was > 100 µM (inactive).

Turning to `COC(=O)c1ccc(C)c(NC(=O)CSc2sc3c(O)cc(=O)[nH]c3c2C#N)c1`, the EC50 is > 100 µM (inactive).

For the compound `CCN(C(=O)CN1C(=O)/C(=C\c2ccco2)SC1=S)C1CCS(=O)(=O)C1` (stereo not drawn), the pEC50 was 4.37.

Take `O=C(N/N=C/c1ccsc1)c1cc(O)c(O)c(O)c1`: the EC50 was > 100 µM (inactive).

Regarding `O=C(CN1C(=O)/C(=C/c2ccco2)SC1=S)NC1CCS(=O)(=O)C1` (stereo not drawn), the negative logarithm of the EC50 (pEC50) was 4.51.

With `O=C(CCN1C(=O)/C(=C/c2ccco2)SC1=S)Nc1ccc(C(=O)O)c(O)c1`, the EC50 is > 100 µM (inactive).

As for `COc1cc(C(=O)NNC(=O)C2CC2)cc(OC)c1OC`, the EC50 was > 100 µM (inactive).

Turning to `COc1cc(C(=O)NN=Cc2ccccn2)cc(OC)c1OC`, the negative-log EC50 (pEC50) is 4.51.

For the compound `COc1ccc(CNC(=O)CSc2sc3c(O)cc(=O)[nH]c3c2C#N)cc1`, the EC50 was > 100 µM (inactive).

Turning to `COc1ccc(NC(=O)C(CC(C)C)NS(=O)(=O)c2ccc3[nH]c(=O)oc3c2)cc1` (stereo not drawn), the EC50 was > 100 µM (inactive).

For the compound `O=C(CN1C(=O)/C(=C/c2ccco2)SC1=S)Nc1ccc2nccnc2c1`, the EC50 is > 100 µM (inactive).

For `CCN(CC)C(=O)CSc1sc2c(O)cc(=O)[nH]c2c1C#N`, the EC50 was > 100 µM (inactive).

With `CN(C(=O)CN1C(=O)/C(=C\c2ccco2)SC1=S)C1CCS(=O)(=O)C1` (stereo not drawn), the EC50 was > 100 µM (inactive).

On to `COC(=O)NNC(=O)c1cc(OC)c(OC)c(OC)c1`, for which the EC50 is > 100 µM (inactive).

Regarding `COc1cc([N+](=O)[O-])ccc1NC(=S)NCCC(c1ccccc1)c1ccccc1`, the EC50 is > 100 µM (inactive).

`C/C(=N\NC(=O)c1cc(O)c(O)c(O)c1)c1ccncc1`: the EC50 is > 100 µM (inactive).

On to `NS(=O)(=O)c1ccc(-c2ccc(/C=C3\SC(=S)N(C4CCS(=O)(=O)C4)C3=O)o2)cc1` (stereo not drawn), for which the EC50 was > 100 µM (inactive).

Regarding `COc1cc(C(=O)NNC(=O)c2n[nH]c3ccccc23)cc(OC)c1OC`, the pEC50 was 4.62.

For `Cc1ccc(NC(=O)CCNS(=O)(=O)c2ccc3[nH]c(=O)oc3c2)cc1F`, the EC50 was > 100 µM (inactive).

With `CC(C)NC(=O)CSc1sc2c(O)cc(=O)[nH]c2c1C#N`, the EC50 is > 100 µM (inactive).

With `COc1ccccc1CNC(=O)CCNS(=O)(=O)c1ccc2[nH]c(=O)oc2c1`, the EC50 is > 100 µM (inactive).

With `CC(C)N1CCC(=NNC(=O)c2cc(O)c(O)c(O)c2)CC1`, the EC50 is > 100 µM (inactive) and 66.6 µM.

Turning to `O=C(CN1C(=O)/C(=C\c2ccco2)SC1=S)Nc1ccccc1C(=O)O`, the EC50 was > 100 µM (inactive).

As to `O=C(N/N=C/c1ccco1)c1cc(O)c(O)c(O)c1`, the EC50 is > 100 µM (inactive).

Take `O=C(O)CC(C(=O)O)N1C(=O)/C(=C/c2ccc(-c3nc4ccccc4s3)o2)SC1=S` (stereo not drawn): the EC50 is > 100 µM (inactive).

`CCOC(=O)N1CCN(S(=O)(=O)c2ccc3[nH]c(=O)oc3c2)CC1`: the EC50 is > 100 µM (inactive).

Turning to `COc1cc(C(=O)NNC(=S)NC(=O)c2ccc(Cl)cc2)cc(OC)c1OC`, the pEC50 is 4.72.

Consider `O=[N+]([O-])c1ccc(NC(=S)NCCC(c2ccccc2)c2ccccc2)cc1`, for which the EC50 was > 100 µM (inactive).

Consider `COc1cc(C(=O)NNc2nc3cc4c(cc3s2)OCO4)cc(OC)c1OC`, for which the pEC50 is 4.87.

For the compound `O=C(CN1C(=O)/C(=C/c2ccco2)SC1=S)NC1C=CS(=O)(=O)C1` (stereo not drawn), the pEC50 was 4.28.

For `O=C(CCN1C(=O)/C(=C/c2ccco2)SC1=S)Nc1ccc(O)cc1C(=O)O`, the EC50 is > 100 µM (inactive).

`O=C(N/N=C/c1ccccc1F)c1cc(O)c(O)c(O)c1`: the EC50 was > 100 µM (inactive).

As for `N#Cc1c(SCC(=O)NCc2ccc3c(c2)OCO3)sc2c(O)cc(=O)[nH]c12`, the EC50 is > 100 µM (inactive).

For the compound `Cc1ccc(NC(=O)CCNS(=O)(=O)c2ccc3[nH]c(=O)oc3c2)cc1N(C)C`, the EC50 is > 100 µM (inactive).

On to `COc1ccc(OC)c(NC(=O)CSc2sc3c(O)cc(=O)[nH]c3c2C#N)c1`, for which the EC50 was > 100 µM (inactive).

Consider `S=C(NCCC(c1ccccc1)c1ccccc1)Nc1ccc(Cl)cc1Cl`, for which the negative-log EC50 (pEC50) is 4.35.

For the compound `CC(C)C(C(=O)NC1CCS(=O)(=O)C1)N1C(=O)/C(=C\c2ccco2)SC1=S` (stereo not drawn), the EC50 is > 100 µM (inactive).

With `O=C(NCCc1ccc(Cl)cc1)C1CCCN(S(=O)(=O)c2ccc3[nH]c(=O)oc3c2)C1` (stereo not drawn), the EC50 was > 100 µM (inactive).

For `CCc1nnc(NC(=O)CSc2sc3c(O)cc(=O)[nH]c3c2C#N)s1`, the EC50 was > 100 µM (inactive).

With `O=C(CN1C(=O)/C(=C/c2ccco2)SC1=S)N[C@@H]1CSC[C@@H]1O`, the EC50 was > 100 µM (inactive).

In the case of `COc1ccc(Cl)cc1NC(=O)CSc1sc2c(O)cc(=O)[nH]c2c1C#N`, the EC50 is > 100 µM (inactive).

`CC(C(=O)Nc1ccc(C(=O)O)c(O)c1)N1C(=O)/C(=C\c2ccco2)SC1=S` (stereo not drawn): the EC50 is > 100 µM (inactive).

`COc1ccccc1NC(=O)CSc1sc2c(O)cc(=O)[nH]c2c1C#N`: the EC50 is > 100 µM (inactive).

Regarding `CC(C(=O)NCCc1ccc(O)cc1)N1C(=O)/C(=C/c2ccco2)SC1=S` (stereo not drawn), the EC50 is > 100 µM (inactive).

In the case of `CCOc1ccccc1CNC(=O)CCNS(=O)(=O)c1ccc2[nH]c(=O)oc2c1`, the EC50 is > 100 µM (inactive).

As for `O=C(c1ccco1)N1CCN(S(=O)(=O)c2ccc3[nH]c(=O)oc3c2)CC1`, the EC50 is > 100 µM (inactive).

On to `COc1cccc(CNC(=O)CCNS(=O)(=O)c2ccc3[nH]c(=O)oc3c2)c1`, for which the EC50 was > 100 µM (inactive).

For `COc1ccc(NC(=O)CSc2sc3c(O)cc(=O)[nH]c3c2C#N)c(OC)c1`, the EC50 was > 100 µM (inactive).
